# Experiment: Octanol-water distribution coefficient, log P of the compound by HPLC analysis
# Format: physicochemical
row,logP,SMILES
1,2.29,[11CH3]Oc1ccc(-c2c(C#N)c(C(=O)NN3CCCCC3)nn2-c2ccccc2Br)cc1
2,2.03,[11CH3]Oc1ccc(-c2c(C#N)c(C(=O)NN3CCCC3)nn2-c2ccccc2Br)cc1
